# Where two headings read alike, the source gives them in different places.
# Test system: TMD-8 cells
# Assay: Cell proliferation assay (CellTiter-Glo), TMD-8
# Assay type: cell-based
# Settings: 5-day treatment, read-out: TMD8 cells growth IC50
# Procedure: Cell proliferation assay: TMD-8 and SU-DHL-1 cells were maintained at 37° C. in a humidified atmosphere with 5% CO2 in the recommended medium and serum concentrations. For cell proliferation assay, cells were seeded in 96-well pates at a density of 5,000 to 10,000 cells per well and cultured overnight at 37° C. in recommended medium supplemented with 5-10% FBS. On the next day, the test articles at various concentrations or vehicle control (0.5% DMSO) were added into cell culture. After 5-day treatment, the growth of cells was assayed by the CellTiter-Glo® Luminestceaent Cell Viability Assay (Promega). IC50 values were calculated using GraphPad Prism by plotting the logarithm of the concentration versus percent inhibition of cell growth as compared with the vehicle control.
Structure (SMILES),"IC50 (Homo sapiens, TMD8, 120 h) [nM]",IC50 [nM]
"CCN(C/C=C/C(=O)N1CCC[C@@H](n2cc(-c3ccc(Oc4ccccc4)cc3)c3c(N)n[nH]c(=O)c32)C1)C1CC1 [Example 30, 4-amino-1-[(3R)-1-[(E)-4-[cyclopropyl(ethyl)amino]but-2-enoyl]-3-piperidyl]-3-(4-phenoxyphenyl)-6H-pyrrolo[2,3-d]pyridazin-7-one]",10 to 1000,–
"CN(C/C=C/C(=O)N1CCC[C@@H](n2cc(-c3ccc(Oc4ccccc4)cc3)c3c(N)n[nH]c(=O)c32)C1)C1CCC1 [Example 31, 4-amino-1-[(3R)-1-[(E)-4-[cyclobutyl(methyl)amino]but-2-enoyl]-3-piperidyl]-3-(4-phenoxyphenyl)-6H-pyrrolo[2,3-d]pyridazin-7-one]",10 to 1000,–
"Nc1n[nH]c(=O)c2c1c(-c1ccc(Oc3ccccc3)cc1)cn2[C@@H]1CCCN(C(=O)/C=C/CN2CCC2)C1 [Example 33, 4-amino-1-[(3R)-1-[(E)-4-(azetidin-1-yl)but-2-enoyl]-3-piperidyl]-3-(4-phenoxyphenyl)-6H-pyrrolo[2,3-d]pyridazin-7-one]",≤ 10,–
"Nc1n[nH]c(=O)c2c1c(-c1ccc(Oc3ccccc3)cc1)cn2[C@@H]1CCCN(C(=O)/C=C/CN2CCCC2)C1 [Example 34, 4-amino-3-(4-phenoxyphenyl)-1-[(3R)-1-[(E)-4-pyrrolidin-1-ylbut-2-enoyl]-3-piperidyl]-6H-pyrrolo[2,3-d]pyridazin-7-one]",≤ 10,–
"Nc1n[nH]c(=O)c2c1c(-c1ccc(Oc3ccccc3)cc1)cn2[C@@H]1CCCN(C(=O)/C=C/CN2CCOCC2)C1 [Example 35, 4-amino-1-[(3R)-1-[(E)-4-morpholinobut-2-enoyl]-3-piperidyl]-3-(4-phenoxyphenyl)-6H-pyrrolo[2,3-d]pyridazin-7-one]",≤ 10,–
"CN(C)C/C=C/C(=O)N1CCCC(n2cc(-c3ccc(Oc4ccccc4)cc3)c3c(N)n[nH]c(=O)c32)C1 (stereo not shown) [Example 38, 4-amino-1-[1-[(E)-4-(dimethylamino)but-2-enoyl]-3-piperidyl]-3-(4-phenoxyphenyl)-6H-pyrrolo[2,3-d]pyridazin-7-one]",≤ 10,–
"CN(C)C/C=C/C(=O)N1CC[C@@H](n2cc(-c3ccc(Oc4ccccc4)cc3)c3c(N)n[nH]c(=O)c32)C1 [Example 39, 4-amino-1-[(3R)-1-[(E)-4-(dimethylamino)but-2-enoyl]pyrrolidin-3-yl]-3-(4-phenoxyphenyl)-6H-pyrrolo[2,3-d]pyridazin-7-one]",≤ 10,–
"CN(C)C/C=C/C(=O)N1CC(n2cc(-c3ccc(Oc4ccccc4)cc3)c3c(N)n[nH]c(=O)c32)C1 [Example 40, 4-amino-1-[1-[(E)-4-(dimethylamino)but-2-enoyl]azetidin-3-yl]-3-(4-phenoxyphenyl)-6H-pyrrolo[2,3-d]pyridazin-7-one]",10 to 1000,–
"CN(C)C/C=C/C(=O)N1CCC[C@H]1Cn1cc(-c2ccc(Oc3ccccc3)cc2)c2c(N)n[nH]c(=O)c21 [Example 41, 4-amino-1-[[(2S)-1-[(E)-4-(dimethylamino)but-2-enoyl]pyrrolidin-2-yl]methyl]-3-(4-phenoxyphenyl)-6H-pyrrolo[2,3-d]pyridazin-7-one]",10 to 1000,–
"CN(C)C/C=C/C(=O)N1CCC(Cn2cc(-c3ccc(Oc4ccccc4)cc3)c3c(N)n[nH]c(=O)c32)C1 (stereo not shown) [Example 43, 4-amino-1-[[1-[(E)-4-(dimethylamino)but-2-enoyl]pyrrolidin-3-yl]methyl]-3-(4-phenoxyphenyl)-6H-pyrrolo[2,3-d]pyridazin-7-one]",10 to 1000,–
"CN(C)C/C=C/C(=O)N1CCC(n2cc(-c3ccc(Oc4ccccc4)cc3)c3c(N)n[nH]c(=O)c32)CC1 [Example 44, 4-amino-1-[1-[(E)-4-(dimethylamino)but-2-enoyl]-4-piperidyl]-3-(4-phenoxyphenyl)-6H-pyrrolo[2,3-d]pyridazin-7-one]",10 to 1000,–
"CN(C)C/C=C/C(=O)N1CCC(F)C(n2cc(-c3ccc(Oc4ccccc4)cc3)c3c(N)n[nH]c(=O)c32)C1 (stereo not shown) [Example 45, 4-amino-1-[1-[(E)-4-(dimethylamino)but-2-enoyl]-4-fluoro-3-piperidyl]-3-(4-phenoxyphenyl)-6H-pyrrolo[2,3 d]pyridazin-7-one]",–,≤ 10
"CN(C)C/C=C/C(=O)NC1CCC(n2cc(-c3ccc(Oc4ccccc4)cc3)c3c(N)n[nH]c(=O)c32)CC1 (stereo not shown) [Example 46, (E)-N-[4-[4-amino-7-oxo-3-(4-phenoxyphenyl)-6H-pyrrolo[2,3 d]pyridazin-1-yl]cyclohexyl]-4-(dimethylamino)but-2-enamide]",–,10 to 1000
"CN(C)C/C=C/C(=O)N1CC(Cn2cc(-c3ccc(Oc4ccccc4)cc3)c3c(N)n[nH]c(=O)c32)C1 [Example 47, 4-amino-1-[[1-[(E)-4-(dimethylamino)but-2-enoyl]azetidin-3-yl]methyl]-3-(4-phenoxyphenyl)-6H-pyrrolo[2,3 d]pyridazin-7-one]",–,≤ 10
"CN(C)C/C=C/C(=O)NC1C2CCC1CC(n1cc(-c3ccc(Oc4ccccc4)cc3)c3c(N)n[nH]c(=O)c31)C2 (stereo not shown) [Example 48, (E)-N-[3-[4-amino-7-oxo-3-(4-phenoxyphenyl)-6H-pyrrolo[2,3 d]pyridazin-1-yl]-8-bicyclo[3.2.1]octanyl]-4-(dimethylamino)but-2-enamide]",–,10 to 1000
"CN(C)C/C=C/C(=O)N1C[C@H](n2cc(-c3ccc(Oc4ccccc4)cc3)c3c(N)n[nH]c(=O)c32)CC(F)(F)C1 [Example 49, 4-amino-1-[(3R)-1-[(E)-4-(dimethylamino)but-2-enoyl]-5,5-difluoro-3-piperidyl]-3-(4-phenoxyphenyl)-6H-pyrrolo[2,3-d]pyridazin-7-one]",10 to 1000,–
"N#C/C(=C\C1CC1)C(=O)N1CCC[C@@H](n2cc(-c3ccc(Oc4ccccc4)cc3)c3c(N)n[nH]c(=O)c32)C1 [Example 50, (E)-2-[(3R)-3-[4-amino-7-oxo-3-(4-phenoxyphenyl)-6H-pyrrolo[2,3-d]pyridazin-1-yl]piperidine-1-carbonyl]-3-cyclopropyl-prop-2-enenitrile]",10 to 1000,–
"C=CC(=O)N1CCCC(n2cc(-c3ccc(OC)cc3)c3c(N)n[nH]c(=O)c32)C1 (stereo not shown) [Example 51, 1-(1-acryloylpiperidin-3-yl)-4-amino-3-(4-methoxyphenyl)-1H-pyrrolo[2,3-d]pyridazin-7(6H)-one]",10 to 1000,–
"COc1ccc(-c2cn(C3CCCN(C(=O)/C=C/CN(C)C)C3)c3c(=O)[nH]nc(N)c23)cc1 (stereo not shown) [Example 52, 4-amino-1-[1-[(E)-4-(dimethylamino)but-2-enoyl]-3-piperidyl]-3-(4-methoxyphenyl)-6H-pyrrolo[2,3-d]pyridazin-7-one]",1000 to 100000,–
"C=CC(=O)N1CCCC(n2cc(-c3ccc(OC)c(Cl)c3)c3c(N)n[nH]c(=O)c32)C1 (stereo not shown) [Example 53, 1-(1-acryloylpiperidin-3-yl)-4-amino-3-(3-chloro-4-methoxyphenyl)-1H-pyrrolo[2,3-d]pyridazin-7(6H)-one]",10 to 1000,–
"COc1ccc(-c2cn(C3CCCN(C(=O)/C=C/CN(C)C)C3)c3c(=O)[nH]nc(N)c23)cc1Cl (stereo not shown) [Example 54, 4-amino-3-(3-chloro-4-methoxy-phenyl)-1-[1-[(E)-4-(dimethylamino)but-2-enoyl]-3-piperidyl]-6H-pyrrolo[2,3-d]pyridazin-7-one]",10 to 1000,–
"C=CC(=O)N1CCCC(n2cc(-c3ccc(Oc4ccccc4F)cc3)c3c(N)n[nH]c(=O)c32)C1 (stereo not shown) [Example 55, 1-(1-acryloylpiperidin-3-yl)-4-amino-3-(4-(2-fluorophenoxy)phenyl)-1H-pyrrolo[2,3-d]pyridazin-7(6H)-one]",≤ 10,–

# Reference: patent publication US10323037B2, “Aminopyridazinone compounds as protein kinase inhibitors” (Jiangsu Hengrui Medicine Co., Ltd., priority 2014, dated 2019)
